{"source": "ChEMBL document CHEMBL6177931", "about": "“Exploring diverse frontiers: Advancements of bioactive 4-aminoquinoline-based molecular hybrids in targeted therapeutics and beyond” (Eur J Med Chem, 2024)", "key": {"Bacillus subtilis [1]": {"test_system": "Bacillus subtilis", "experiment": "Antibacterial activity against Bacillus subtilis ATCC19659", "format": "functional"}, "Enterococcus faecalis": {"test_system": "Enterococcus faecalis", "experiment": "Antibacterial activity against Enterococcus faecalis ATCC13047", "format": "functional"}, "[2]": {"test_system": "Staphylococcus epidermidis", "experiment": "Antibacterial activity against Staphylococcus epidermidis", "format": "functional"}, "Staphylococcus aureus [3]": {"test_system": "Staphylococcus aureus", "experiment": "Antibacterial activity against Staphylococcus aureus", "format": "functional"}, "[4]": {"test_system": "Mycolicibacterium smegmatis", "experiment": "Antibacterial activity against Mycobacterium smegmatis", "format": "functional"}, "Proteus vulgaris": {"test_system": "Proteus vulgaris", "experiment": "Antibacterial activity against Proteus vulgaris ATCC6380", "format": "functional"}, "Klebsiella oxytoca": {"test_system": "Klebsiella oxytoca", "experiment": "Antibacterial activity against Klebsiella oxytoca ATCC8724", "format": "functional"}, "Pseudomonas aeruginosa [5]": {"test_system": "Pseudomonas aeruginosa", "experiment": "Antibacterial activity against Pseudomonas aeruginosa", "format": "functional"}, "Pseudomonas mevalonii": {"test_system": "Pseudomonas mevalonii", "experiment": "Antibacterial activity against Pseudomonas mevalonii", "format": "functional", "conditions": "Pseudomonas sp. 'mevalonii'"}, "Escherichia coli [6]": {"test_system": "Escherichia coli", "experiment": "Antibacterial activity against Escherichia coli ATCC25922", "format": "functional"}, "Acetylcholinesterase [7]": {"molecular_target": "T1, Acetylcholinesterase (Electrophorus electricus, UniProt O42275)", "T1 sequence (O42275 whole entry)": "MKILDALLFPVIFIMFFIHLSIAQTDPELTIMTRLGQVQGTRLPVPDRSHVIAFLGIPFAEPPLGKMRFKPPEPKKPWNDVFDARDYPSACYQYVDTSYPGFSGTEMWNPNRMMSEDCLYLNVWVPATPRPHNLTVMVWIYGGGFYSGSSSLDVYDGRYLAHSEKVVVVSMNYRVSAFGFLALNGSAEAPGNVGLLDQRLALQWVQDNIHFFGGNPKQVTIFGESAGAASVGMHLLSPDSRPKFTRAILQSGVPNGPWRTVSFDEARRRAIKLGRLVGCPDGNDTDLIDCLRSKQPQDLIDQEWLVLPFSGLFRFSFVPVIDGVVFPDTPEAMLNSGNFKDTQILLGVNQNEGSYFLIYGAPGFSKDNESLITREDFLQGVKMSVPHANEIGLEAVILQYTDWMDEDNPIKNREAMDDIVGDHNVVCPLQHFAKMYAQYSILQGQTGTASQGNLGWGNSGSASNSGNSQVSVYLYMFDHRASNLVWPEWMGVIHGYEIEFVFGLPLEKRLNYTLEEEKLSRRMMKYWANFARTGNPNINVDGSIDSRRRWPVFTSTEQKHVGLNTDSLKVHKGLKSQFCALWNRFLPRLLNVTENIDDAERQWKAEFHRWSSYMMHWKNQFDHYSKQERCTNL", "experiment": "Inhibition of electric eel AChE using […] as substrate measured after 2 mins by Ellman's reagent based spectrophotometric analysis"}, "Cholinesterase [8]": {"molecular_target": "T2, Cholinesterase (Equus caballus, UniProt P81908)", "T2 sequence (P81908 whole entry)": "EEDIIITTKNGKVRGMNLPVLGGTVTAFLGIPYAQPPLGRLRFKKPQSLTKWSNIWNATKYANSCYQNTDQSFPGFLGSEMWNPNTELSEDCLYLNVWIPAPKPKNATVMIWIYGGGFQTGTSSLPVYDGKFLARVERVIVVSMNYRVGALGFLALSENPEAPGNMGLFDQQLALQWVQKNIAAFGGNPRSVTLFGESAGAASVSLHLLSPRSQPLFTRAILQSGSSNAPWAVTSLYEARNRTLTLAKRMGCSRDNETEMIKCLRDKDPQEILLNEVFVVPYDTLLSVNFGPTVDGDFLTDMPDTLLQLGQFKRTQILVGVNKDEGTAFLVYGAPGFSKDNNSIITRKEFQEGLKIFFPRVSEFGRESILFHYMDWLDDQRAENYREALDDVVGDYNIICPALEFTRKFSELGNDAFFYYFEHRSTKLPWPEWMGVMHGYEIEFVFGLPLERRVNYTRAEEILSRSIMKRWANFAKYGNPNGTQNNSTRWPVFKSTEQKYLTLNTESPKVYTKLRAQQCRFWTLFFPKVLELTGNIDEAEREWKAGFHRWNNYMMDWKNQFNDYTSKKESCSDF", "experiment": "Inhibition of equine serum BChE using […] as substrate measured after 2 mins by Ellman's reagent based spectrophotometric analysis"}, "[9]": {"test_system": "Mycobacterium tuberculosis", "experiment": "Antitubercular activity against Mycobacterium tuberculosis H37Rv", "format": "functional"}, "[10]": {"test_system": "Mycobacterium tuberculosis", "experiment": "Antitubercular activity against Mycobacterium tuberculosis H37Rv assessed as inhibition of bacterial growth at 250 microg/ml relative to control", "format": "functional"}, "[11]": {"test_system": "Mycobacterium tuberculosis", "experiment": "Antitubercular activity against Mycobacterium tuberculosis H37Rv by microplate alamar blue assay", "format": "functional"}, "HepG2": {"test_system": "HepG2", "experiment": "Anticancer activity against human HepG2 cells incubated for 48 hrs by MTT assay", "format": "functional, cell-based", "conditions": "HepG2, 48 h"}, "MGC-803 [12]": {"test_system": "MGC-803", "experiment": "Antiproliferative activity against human MGC-803 cells incubated for 48 hrs by MTT assay", "format": "functional, cell-based", "conditions": "MGC-803, 48 h"}, "T-24": {"test_system": "T-24", "experiment": "Antiproliferative activity against human T24 cells incubated for 48 hrs by MTT assay", "format": "functional, cell-based", "conditions": "T-24, 48 h"}, "NCI-H460": {"test_system": "NCI-H460", "experiment": "Antiproliferative activity against human NCI-H460 cells incubated for 48 hrs by MTT assay", "format": "functional, cell-based", "conditions": "NCI-H460, 48 h"}, "L02": {"test_system": "L02", "experiment": "Antiproliferative activity against human HL7702 cells incubated for 48 hrs by MTT assay", "format": "functional, cell-based", "conditions": "L02, 48 h"}, "MGC-803 [13]": {"test_system": "MGC-803", "experiment": "Antitumor activity against human MGC-803 cells xenografted in male BALB/c nude mouse assessed as suppression of tumor growth at 12 mg/kg, ip administered per 2 days relative to control", "format": "functional"}, "Acetylcholinesterase [14]": {"molecular_target": "T1, Acetylcholinesterase", "experiment": "Inhibition of electric eel AChE using […] as substrate measured within 2 mins"}, "Cholinesterase [15]": {"molecular_target": "T2, Cholinesterase", "experiment": "Inhibition of equine serum BChE using […] as substrate measured within 2 mins"}, "Acetylcholinesterase [16]": {"molecular_target": "T3, Acetylcholinesterase (Homo sapiens, UniProt P22303)", "T3 sequence (P22303 whole entry)": "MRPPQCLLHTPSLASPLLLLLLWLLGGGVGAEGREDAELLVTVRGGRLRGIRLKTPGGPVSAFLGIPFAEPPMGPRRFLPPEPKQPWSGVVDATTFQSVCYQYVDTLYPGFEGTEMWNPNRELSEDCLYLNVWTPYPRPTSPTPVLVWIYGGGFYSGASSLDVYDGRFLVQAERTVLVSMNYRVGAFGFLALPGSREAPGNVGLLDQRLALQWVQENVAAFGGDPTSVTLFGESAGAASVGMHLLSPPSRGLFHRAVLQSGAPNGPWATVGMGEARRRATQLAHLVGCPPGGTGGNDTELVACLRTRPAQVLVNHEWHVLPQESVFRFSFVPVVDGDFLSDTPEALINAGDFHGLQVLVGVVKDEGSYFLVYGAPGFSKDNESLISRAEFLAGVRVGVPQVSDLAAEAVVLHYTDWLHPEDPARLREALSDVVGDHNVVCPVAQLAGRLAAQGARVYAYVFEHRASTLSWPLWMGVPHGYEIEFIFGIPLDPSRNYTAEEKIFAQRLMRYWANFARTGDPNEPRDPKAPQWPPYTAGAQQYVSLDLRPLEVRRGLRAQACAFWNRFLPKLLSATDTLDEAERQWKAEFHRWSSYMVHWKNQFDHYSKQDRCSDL", "experiment": "Inhibition of recombinant human AchE by Ellman's reagent based spectrophotometric analysis"}, "Cholinesterase [17]": {"molecular_target": "T4, Cholinesterase (Homo sapiens, UniProt P06276)", "T4 sequence (P06276 whole entry)": "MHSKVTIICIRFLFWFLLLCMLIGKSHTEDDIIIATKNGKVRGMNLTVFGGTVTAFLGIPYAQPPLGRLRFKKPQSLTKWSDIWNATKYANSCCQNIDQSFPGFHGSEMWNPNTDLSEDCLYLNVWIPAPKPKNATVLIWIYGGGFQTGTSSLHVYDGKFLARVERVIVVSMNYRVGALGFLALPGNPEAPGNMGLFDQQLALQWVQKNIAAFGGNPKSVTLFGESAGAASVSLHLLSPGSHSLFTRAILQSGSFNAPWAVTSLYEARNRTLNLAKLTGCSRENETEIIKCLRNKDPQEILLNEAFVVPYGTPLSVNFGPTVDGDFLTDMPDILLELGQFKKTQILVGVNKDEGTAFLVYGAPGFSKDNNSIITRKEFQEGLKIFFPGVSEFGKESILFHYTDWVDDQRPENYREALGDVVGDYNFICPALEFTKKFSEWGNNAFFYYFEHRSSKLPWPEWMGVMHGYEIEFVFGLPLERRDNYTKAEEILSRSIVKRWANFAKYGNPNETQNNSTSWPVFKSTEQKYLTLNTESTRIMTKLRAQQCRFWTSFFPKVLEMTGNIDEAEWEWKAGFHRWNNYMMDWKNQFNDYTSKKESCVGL", "experiment": "Inhibition of human BchE by Ellman's reagent based spectrophotometric analysis"}, "MDA-MB-231": {"test_system": "MDA-MB-231", "experiment": "Anticancer activity against human MDA-MB-231 cells", "format": "functional, cell-based"}, "[18]": {"molecular_target": "Cholinesterases; ACHE & BCHE (Homo sapiens) (UniProt P06276+P22303)", "sequence (P06276 whole entry, looked up)": "as the sequence (P06276 whole entry) above", "sequence (P22303 whole entry, looked up)": "as the sequence (P22303 whole entry) above", "experiment": "Selectivity ratio of IC50 for inhibition of human BchE to IC50 for inhibition of recombinant human AchE", "format": "protein assay"}, "Staphylococcus aureus [19]": {"test_system": "Staphylococcus aureus", "experiment": "Antibacterial activity against Staphylococcus aureus MTCC 96 by agar streak dilution method", "format": "functional"}, "Bacillus subtilis [20]": {"test_system": "Bacillus subtilis", "experiment": "Antibacterial activity against Bacillus subtilis MTCC 619 by agar streak dilution method", "format": "functional"}, "Escherichia coli [21]": {"test_system": "Escherichia coli", "experiment": "Antibacterial activity against Escherichia coli MTCC 739 by agar streak dilution method", "format": "functional"}, "Pseudomonas aeruginosa [22]": {"test_system": "Pseudomonas aeruginosa", "experiment": "Antibacterial activity against Pseudomonas aeruginosa MTCC 741 by agar streak dilution method", "format": "functional"}, "Candida albicans": {"test_system": "Candida albicans", "experiment": "Antifungal activity against Candida albicans MTCC 183 by agar streak dilution method", "format": "functional"}, "Aspergillus niger": {"test_system": "Aspergillus niger", "experiment": "Antifungal activity Aspergillus niger MTCC 282 by agar streak dilution method", "format": "organism-based"}, "Acetylcholinesterase [23]": {"molecular_target": "T3, Acetylcholinesterase", "experiment": "Inhibition of human AChE"}, "Cholinesterase [24]": {"molecular_target": "T4, Cholinesterase", "experiment": "Inhibition of human BChE"}, "MCF7": {"test_system": "MCF7", "experiment": "Anticancer activity against human MCF7 cells", "format": "functional, cell-based"}, "HeLa": {"test_system": "HeLa", "experiment": "Anticancer activity against human HeLa cells", "format": "functional, cell-based"}, "Plasmodium falciparum": {"test_system": "Plasmodium falciparum", "experiment": "Antiplasmodial activity against chloroquine sensitive Plasmodium falciparum NF54 incubated for 48 hrs by lactate dehydrogenase assay", "format": "functional, organism-based", "conditions": "NF54, Erythrocyte"}}}
{"compound": "CC1(C)CC[C@]2(C(=O)OCCNc3ccnc4ccc(Cl)cc34)CC[C@]3(C)C(=CC[C@@H]4[C@@]5(C)CC[C@H](O)C(C)(C)[C@@H]5CC[C@]43C)[C@@H]2C1", "values": [{"measurement": "MIC", "setting": "Bacillus subtilis [1]", "result": 2500, "unit": "µg/mL"}, {"measurement": "MIC", "setting": "Enterococcus faecalis", "result": 1250, "unit": "µg/mL"}, {"measurement": "MIC", "setting": "[2]", "result": 1250, "unit": "µg/mL"}, {"measurement": "MIC", "setting": "Staphylococcus aureus [3]", "result": 1250, "unit": "µg/mL"}, {"measurement": "MIC", "setting": "[4]", "result": 1250, "unit": "µg/mL"}, {"measurement": "MIC", "setting": "Proteus vulgaris", "result": 2500, "unit": "µg/mL"}, {"measurement": "MIC", "setting": "Klebsiella oxytoca", "result": 1250, "unit": "µg/mL"}, {"measurement": "MIC", "setting": "Pseudomonas aeruginosa [5]", "result": 2500, "unit": "µg/mL"}, {"measurement": "MIC", "setting": "Pseudomonas mevalonii", "result": 2500, "unit": "µg/mL"}, {"measurement": "MIC", "setting": "Escherichia coli [6]", "result": 2500, "unit": "µg/mL"}]}
{"compound": "COc1cc(/C=C/C(=O)NCCCNc2cc(C)nc3ccccc23)ccc1OCc1ccccc1", "values": [{"measurement": "IC50", "setting": "Acetylcholinesterase [7]", "result": 2470, "unit": "nM"}, {"measurement": "IC50", "setting": "Cholinesterase [8]", "result": 100, "unit": "nM"}]}
{"compound": "Cc1cc(C(=O)NNc2ccnc3cc(Cl)ccc23)c2ccccc2n1", "values": [{"measurement": "MIC", "setting": "[9]", "result": 42, "unit": "µM"}, {"measurement": "inhibition at 250 µg/mL", "setting": "[10]", "result": 98, "unit": "%"}]}
{"compound": "O=C(NNc1ccnc2cc(Cl)ccc12)c1cc(-c2ccccc2)nc2ccccc12", "values": [{"measurement": "MIC", "setting": "[9]", "result": 38, "unit": "µM"}, {"measurement": "inhibition at 250 µg/mL", "setting": "[10]", "result": 99, "unit": "%"}]}
{"compound": "COc1cc(/C=C/C(=O)NCCNc2cc(C)nc3ccccc23)ccc1OCc1ccc(Br)cc1", "values": [{"measurement": "IC50", "setting": "Acetylcholinesterase [7]", "result": 620, "unit": "nM"}, {"measurement": "IC50", "setting": "Cholinesterase [8]", "result": 1180, "unit": "nM"}]}
{"compound": "COc1ccc(/C=C/C(=N/NC(N)=O)c2ccc(Nc3ccnc4cc(Cl)ccc34)cc2)cc1OC", "values": [{"measurement": "MIC", "setting": "[11]", "result": 1.56, "unit": "µM"}]}
{"compound": "CN(C)CCCNc1c(-c2nc3ccccc3s2)cnc2ccccc12", "values": [{"measurement": "IC50", "setting": "HepG2", "result": 4880, "unit": "nM"}, {"measurement": "IC50", "setting": "MGC-803 [12]", "result": 2200, "unit": "nM"}, {"measurement": "IC50", "setting": "T-24", "result": 3170, "unit": "nM"}, {"measurement": "IC50", "setting": "NCI-H460", "result": 3220, "unit": "nM"}, {"measurement": "IC50", "setting": "L02", "result": 10900, "unit": "nM"}, {"measurement": "Activity", "setting": "MGC-803 [13]", "result": 42.4, "unit": "%"}]}
{"compound": "Nc1c2c(nc3c1C(c1ccc(F)cc1)C1=C(O3)C(=O)c3ccccc3C1=O)CCCC2", "note": "(centres undefined)", "values": [{"measurement": "IC50", "setting": "Acetylcholinesterase [14]", "result": 890, "unit": "nM"}, {"measurement": "IC50", "setting": "Cholinesterase [15]", "result": 13800, "unit": "nM"}]}
{"compound": "Clc1ccc2c(NCCCCCCCCNC34CC5CC(CC(C5)C3)C4)ccnc2c1", "values": [{"measurement": "Ki", "setting": "Acetylcholinesterase [16]", "result": 75, "unit": "nM"}, {"measurement": "Ki", "setting": "Cholinesterase [17]", "result": 91, "unit": "nM"}]}
{"compound": "Clc1ccc2c(NCCNC34CC5CC(CC(C5)C3)C4)ccnc2c1", "values": [{"measurement": "Ki", "setting": "Acetylcholinesterase [16]", "result": 1600, "unit": "nM"}, {"measurement": "Ki", "setting": "Cholinesterase [17]", "result": 920, "unit": "nM"}]}
{"compound": "C[C@H]1[C@H](C)CC[C@]2(C(=O)OCCOCCNc3ccnc4cc(Cl)ccc34)CC[C@]3(C)C(=CC[C@@H]4[C@@]5(C)CC[C@H](O)C(C)(C)[C@@H]5CC[C@]43C)[C@H]12", "values": [{"measurement": "IC50", "setting": "MDA-MB-231", "result": 85.6, "unit": "µg/mL"}]}
{"compound": "Clc1ccc2c(Nc3cccc4c(NCCC56CC7CC(CC(C7)C5)C6)cccc34)ccnc2c1", "values": [{"measurement": "Ratio IC50", "setting": "[18]", "result": 5.8}]}
{"compound": "CCCCCCCCOc1cc(/C=N/Nc2cc(C)nc3ccc(Cl)cc23)cc(OCCCCCCCC)c1OCCCCCCCC", "values": [{"measurement": "MIC", "setting": "Staphylococcus aureus [19]", "result": 6.25, "unit": "µg/mL"}, {"measurement": "MIC", "setting": "Bacillus subtilis [20]", "result": 25, "unit": "µg/mL"}, {"measurement": "MIC", "setting": "Escherichia coli [21]", "result": 12.5, "unit": "µg/mL"}, {"measurement": "MIC", "setting": "Pseudomonas aeruginosa [22]", "result": 6.25, "unit": "µg/mL"}]}
{"compound": "CCCOc1ccc(/C=N/Nc2cc(C)nc3ccc(Cl)cc23)cc1", "values": [{"measurement": "MIC", "setting": "Candida albicans", "result": 12.5, "unit": "µg/mL"}, {"measurement": "MIC", "setting": "Aspergillus niger", "result": 25, "unit": "µg/mL"}]}
{"compound": "S=C(NCCCCNc1c2c(nc3ccccc13)CCCC2)NCCc1c[nH]c2ccccc12", "values": [{"measurement": "IC50", "setting": "Acetylcholinesterase [23]", "result": 25, "unit": "nM"}, {"measurement": "IC50", "setting": "Cholinesterase [24]", "result": 76, "unit": "nM"}]}
{"compound": "C[C@H]1[C@H](C)CC[C@]2(C(=O)OCCNc3ccnc4cc(Cl)ccc34)CC[C@]3(C)C(=CC[C@@H]4[C@@]5(C)CC[C@H](O)C(C)(C)[C@@H]5CC[C@]43C)[C@H]12", "values": [{"measurement": "IC50", "setting": "MCF7", "result": 48.2, "unit": "µg/mL"}, {"measurement": "IC50", "setting": "HeLa", "result": 105, "unit": "µg/mL"}]}
{"compound": "O=C(/C=C/c1ccccc1Br)c1ccc(S(=O)(=O)NCCCNc2ccnc3cc(Cl)ccc23)cc1", "values": [{"measurement": "IC50", "setting": "Plasmodium falciparum", "result": 100, "unit": "nM"}]}
